Experimental data from patent US20220096862A1, “METHOD FOR IRRADIATING CELLS WITH LIGHT, METHOD FOR CONTROLLING MEDICAL DEVICE, AND MEDICAL DEVICE” (OLYMPUS CORPORATION, priority 2019, published 2022).

Experiments:
A431 tumor bearing mice [1] = assay: Percentage of attenuation of fluorescence versus cellular cytotoxicity after therapeutic light irradiation (PIT), FIG. 4; format: in vivo
Experimental: The total amount of irradiation is the same in both the case where irradiation is performed with the therapeutic light L with the light intensity of 50 mW/cm^2 or less and the case where irradiation is performed with the therapeutic light L with the light intensity of 100 mW/cm^2 or more. In other words, in the case where irradiation is performed with the therapeutic light L with the light intensity of 50 mW/cm^2 or less, a time period during which the cells C are irradiated is longer than a time period during which the cells C are irradiated with the therapeutic light L with the light intensity of 100 mW/cm^2 or more.
After the cells C are irradiated with the therapeutic light L, if the rate of reduction of fluorescence (the percentage of attenuation of fluorescence) and cellular cytotoxicity have a proportional relation, as shown by a dashed-and-dotted line A in FIG. 4, when the rate of reduction of fluorescence is 100%, cellular cytotoxicity is 100%. Therefore, it should be determined that all cells C disappear if fluorescence is no longer detected.
How ever, as the result of experiments performed by the applicant, the following is found. In actual experiments, as the result of observation that is performed after irradiation, by using the endoscope 1, for example, as the rate of reduction of fluorescence approaches 70% (or little more than 70%), cellular cytotoxicity approaches 100%.

A431 tumor bearing mice [2] = assay: Rates of damage of tumor tissues from pathological images after irradiation at different light intensities (PIT), FIG. 5; format: in vivo; details: 300 μg/mouse, irradiated one day after administration, total amount 100 J/cm^2, 25 mW/cm^2 or 50 mW/cm^2 compared with 100 mW/cm^2 or 300 mW/cm^2, tumors excised after one more day
Experimental: Pan-IR700, which is the photosensitizing agent 20, is administered to the A431 tumor bearing mice at 300 μg/mouse. One day after the administration of Pan-IR700, the cells C are irradiated with light of respective irradiation intensities shown in FIG. 5 up to the same total amount (100 J/cm^2). After one more day, tumor tissues are excised, and rates of damage of the tissues are calculated from pathological images of cross sections of the tumors.

Pan-IR700: phthalocyanine fluorescent dye (IRDye 700) attached to one antibody molecule (panitumumab, monoclonal antibody to Human EGFR)
cellular cytotoxicity (A431 tumor bearing mice [1]; as the rate of reduction of fluorescence approaches 70% (or little more than 70%), after irradiation with therapeutic light L, FIG. 4): ~100%
relationship of reduction of fluorescence and cellular cytotoxicity (A431 tumor bearing mice [1]; therapeutic light L with light intensity of 50 mW/cm^2 or less (solid line B, FIG. 4)): linear relationship
rate of cellular cytotoxicity (A431 tumor bearing mice [1]; therapeutic light L with light intensity of 100 mW/cm^2 or more (solid line D, FIG. 4), reduction of fluorescence also found): low
cellular cytotoxicity (rates of damage of the tissues) (A431 tumor bearing mice [2]): greater
